PubChem BioAssay (NCI)
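Where inhibition never reached the appropriate level, the endpoint shown equals the highest concentration tested. Otherwise, values were interpolated linearly from a five-concentration, 48-hour dose response in 96-well plates. Here, GI50 denotes the concentration required for 50% inhibition of growth. TGI denotes the concentration required for complete inhibition of growth.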

How the values were obtained:
Experiment in all cases: NCI anticancer screen, dose series, 48 h
[1] = test system: ACHN renal
[2] = test system: TK-10 renal
[3] = test system: U251 CNS
[4] = test system: IGROV1 ovarian
[5] = test system: A549 NSCLC
[6] = test system: UACC-257 melanoma
[7] = test system: HL-60(TB) leukemia
[8] = test system: SW-620 colon
[9] = test system: HOP-92 NSCLC
[10] = test system: SN12C renal

| SMILES | GI50 [1] [µM] | TGI [1] [µM] | GI50 [2] [µM] | TGI [2] [µM] | GI50 [3] [µM] | TGI [3] [µM] | GI50 [4] [µM] | TGI [4] [µM] | GI50 [5] [µM] | TGI [5] [µM] | GI50 [6] [µM] | TGI [6] [µM] | GI50 [7] [µM] | TGI [7] [µM] | GI50 [8] [µM] | TGI [8] [µM] | GI50 [9] [µM] | TGI [9] [µM] | GI50 [10] [µM] | TGI [10] [µM] |
| --- | --- | --- | --- | --- | --- | --- | --- | --- | --- | --- | --- | --- | --- | --- | --- | --- | --- | --- | --- | --- |
| O=c1cc(NCC(O)CN2CCCC2)n(Cc2ccccc2)c(=O)n1Cc1ccccc1 (stereo not drawn) | > 100 | > 100 | > 100 | > 100 | 43.6 | > 100 | 26.6 | 95.4 | > 100 | > 100 | 31.9 | 85.6 | 7.81 | 30.3 | 41.1 | > 100 | 14.9 | > 100 | > 100 | > 100 |
| COc1ccc(-c2nc3ccccn3c2/C=C/C(=O)c2cc(OC)c(OC)c(OC)c2)cc1OC | 3.22 | 15.7 | 3.28 | 8.74 | 2.91 | 65.5 | 3.03 | 12.1 | 3.86 | 30.7 | 3.24 | 15.4 | 2.53 | 6.12 | 2.78 | 55.6 |  |  | 4.1 | 83.7 |
| CCCCC(CC)COC(=O)C[N+](C)(C)CCOC(c1ccccc1)c1ccccc1 (stereo not drawn) | 15 | 30.5 | 4.26 | 17.6 | 1.87 | 3.81 | 1.82 | 3.58 | 17.8 | 38.9 | 2.56 | 7.6 |  |  | 1.97 | 4.3 | 1.86 | 4.9 | 2.43 | 6 |
| CCc1nc2cc(F)c(/C=C/C(=O)NO)cc2c(=O)n1CCc1ccccc1 | 0.343 | 2.56 | 0.256 | 0.838 | 0.277 | 0.891 |  |  | 0.335 | 2.67 | 0.216 | 0.72 | 0.415 | > 100 | 0.336 | 12.1 | 0.33 | 4.87 |  |  |
| COc1c(C(=O)/C=C/c2ccccc2)c(O)cc2occc12 | 4.51 | 19.9 | 11.2 | 24.8 | 4.39 | 16.1 | 3.51 | 11.4 | 8.62 | 29 | 7.01 | 19.7 |  |  | 3.52 | 11.7 | 1.64 | 7.09 | 4.48 | 15.8 |
| Cc1ccc(N=C/C=C(\Nc2ccc(C)cc2)c2ccc(Cl)cc2)cc1 | 14.5 | > 100 | 12.3 | 42.2 | 7.39 | 50.1 |  |  | 10.5 | 61.1 | 15.8 | 38.8 |  |  | 6.44 | 52 | 14 | 33.1 | 11.7 | 33.3 |
| COc1cc2c3c(n(CCCN)c(=O)c2cc1OC)-c1ccc(C#N)cc1C3=O | 14.9 | 28.5 | 16.9 | 41.3 | 13 | 28.4 | 8.79 | > 100 | 5.53 | 22.1 | 28.5 | > 100 |  |  | 11 | 30.6 |  |  | 16.8 | 32.8 |
| COc1cc(OC)c(C(=O)/C=C/c2cccc(C(F)(F)F)c2)c(OC)c1 | 1.46 | 5.17 | 1.85 | 6.01 | 1.01 | 2.1 | 1.71 | 5.6 | 1.48 | 4.82 | 2.06 | 7.89 |  |  | 1.58 | 5.01 | 1.02 | 3.58 | 1.52 | 5.68 |
| CC1(C)C(=O)/C(=C\c2cccnc2)C[C@]2(C)[C@H]3CC[C@@H]4[C@H]5[C@H](C(=O)/C=C/c6cccnc6)CC[C@]5(C(=O)O)CC[C@@]4(C)[C@]3(C)CC[C@@H]12 | 1.69 | 3.06 | 3.57 | 10.9 | 1.74 | 3.26 |  |  | 2.14 | 5.11 | 1.88 | 4.25 | 1.95 | 5.27 | 2.79 | 10.3 | 2.31 | 7.64 | 2.79 | 9.76 |
| N#Cc1cc(-c2cc3ccccc3o2)oc1N | 3 | 11.1 | 6.61 | 34.8 | 3.15 | 14.7 | 1.76 | 6.35 | 3.7 | > 100 | 3.8 | 74.1 | 3.85 | > 100 | 3.98 | 14.8 |  |  | 3 | 11.8 |
| CCCN(CCC)C(=O)c1c([N+](=O)[O-])cc(C(F)(F)F)cc1[N+](=O)[O-] |  | > 100 |  | > 100 |  | > 100 |  | > 100 |  | > 100 |  |  |  | 56.3 |  | 84.3 |  | 93.3 |  | > 100 |
| Cc1[nH]c(=O)nc2[nH][nH]c(=O)c12 |  | > 100 |  | > 100 |  | > 100 |  | > 100 |  | > 100 |  |  |  | > 100 |  | > 100 |  | > 100 |  | > 100 |
| COc1ccc(-c2cc(-c3cc(C)cc(Br)c3O)no2)cc1 |  | 24 |  | 38.5 |  | 33.5 |  | > 100 |  | 57 |  | > 100 |  | > 100 |  | > 100 |  |  |  | 85.2 |
| COC(=O)[C@@]12C(=O)C=CC(=O)C1C1C(=CC2C)OC2OC3(CCCCC3)OC21 (stereo partly drawn) |  | 30.6 |  | 31.6 |  | 31.6 |  | 35.1 |  | 36.3 |  | 31.5 |  | 15.7 |  | 37.4 |  |  |  | 33.2 |
| Cn1cc(C2(C)CC(C)(C)c3c2n(C)c2ccccc32)c2ccccc21 (stereo not drawn) |  |  |  | > 100 |  | > 100 |  | > 100 |  | > 100 |  | > 100 |  |  |  | > 100 |  | > 100 |  | > 100 |
| COC(=O)C(CC(=O)Nc1ccc(C)cc1)C(=O)C(=O)Nc1c(C(C)C)cccc1C(C)C (stereo not drawn) |  | > 100 |  | > 100 |  | > 100 |  | > 100 |  | > 100 |  |  |  | > 100 |  | > 100 |  | > 100 |  | > 100 |
| c1cnn(CN(Cn2cccn2)Cn2cccn2)c1 |  | > 100 |  | > 100 |  | > 100 |  |  |  | > 100 |  | > 100 |  | > 100 |  | > 100 |  | > 100 |  | > 100 |
